In patent publication US11672251B2, “Herbicidally active pyridyl-/pyrimidyl-pyrimidine derivatives” (Syngenta Participations AG, priority 2017, dated 2023):

Key:
Type in all cases: in vivo
[1] = tested on: Alopecurus myosuroides (ALOMY); test: B1 pre-emergence herbicidal activity; details: Test 1b, rate 1000 g/ha, evaluated after 13 days, scale 5=total damage to plant, 0=no damage to plant
Protocol: (§1) Seeds of a variety of test species were sown in standard soil in pots: Triticum aestivium (TRZAW), Avena fatua (AVEFA), Alopecurus myosuroides (ALOMY), Echinochloa crus-galli (ECHCG), Lolium perenne (LOLPE), Zea Mays (ZEAMX), Abutilon theophrasti (ABUTH), Amaranthus retroflexus (AMARE) and Setaria faberi (SETFA). After cultivation for one day (pre-emergence) under controlled conditions in a glasshouse (at 24/16° C., day/night; 14 hours light; 65% humidity), the plants were sprayed with an aqueous spray solution derived from the formulation of the technical active ingredient in acetone/water (50:50) solution containing 0.5% Tween 20 (polyoxyethelyene sorbitan monolaurate, CAS RN 9005-64-5). The test plants were then grown in a glasshouse under controlled conditions (at 24/16° C., day/night; 14 hours light; 65% humidity) and watered twice daily. After 13 days, the test was evaluated (5=total damage to plant; 0=no damage to plant).

[2] = tested on: Avena fatua (AVEFA); test: B1 pre-emergence herbicidal activity; details: Test 1b, rate 1000 g/ha, evaluated after 13 days, scale 5=total damage to plant, 0=no damage to plant
Protocol: as §1

[3] = tested on: Echinochloa crus-galli (ECHCG); test: B1 pre-emergence herbicidal activity; details: Test 1b, rate 1000 g/ha, evaluated after 13 days, scale 5=total damage to plant, 0=no damage to plant
Protocol: as §1

[4] = tested on: Setaria faberi (SETFA); test: B1 pre-emergence herbicidal activity; details: Test 1b, rate 1000 g/ha, evaluated after 13 days, scale 5=total damage to plant, 0=no damage to plant
Protocol: as §1

[5] = tested on: Lolium perenne (LOLPE); test: B1 pre-emergence herbicidal activity; details: Test 1b, rate 1000 g/ha, evaluated after 13 days, scale 5=total damage to plant, 0=no damage to plant
Protocol: as §1

[6] = tested on: Triticum aestivium (TRZAW); test: B1 pre-emergence herbicidal activity; details: Test 1b, rate 1000 g/ha, evaluated after 13 days, scale 5=total damage to plant, 0=no damage to plant
Protocol: as §1

[7] = tested on: Alopecurus myosuroides (ALOMY); test: B2 post-emergence herbicidal activity; details: Test B2b; post-emergence (sprayed after 8 days cultivation); rate 1000 g/ha; evaluated after 13 days; scale 5=total damage to plant, 0=no damage to plant
Protocol: (§2) Seeds of a variety of test species were sown in standard soil in pots: Triticum aestivium (TRZAW), Avena fatua (AVEFA), Alopecurus myosuroides (ALOMY), Echinochloa crus-galli (ECHCG), Lolium perenne (LOLPE), Zea Mays (ZEAMX), Abutilon theophrasti (ABUTH), Amaranthus retroflexus (AMARE) and Setaria faberi (SETFA). After 8 days cultivation (post-emergence) under controlled conditions in a glasshouse (at 24/16° C., day/night; 14 hours light; 65% humidity), the plants were sprayed with an aqueous spray solution derived from the formulation of the technical active ingredient in acetone/water (50:50) solution containing 0.5% Tween 20 (polyoxyethelyene sorbitan monolaurate, CAS RN 9005-64-5). The test plants were then grown in a glasshouse under controlled conditions (at 24/16° C., day/night; 14 hours light; 65% humidity) and watered twice daily. After 13 days, the test was evaluated (5=total damage to plant; 0=no damage to plant).

[8] = tested on: Avena fatua (AVEFA); test: B2 post-emergence herbicidal activity; details: Test B2b; post-emergence (sprayed after 8 days cultivation); rate 1000 g/ha; evaluated after 13 days; scale 5=total damage to plant, 0=no damage to plant
Protocol: as §2

[9] = tested on: Echinochloa crus-galli (ECHCG); test: B2 post-emergence herbicidal activity; details: Test B2b; post-emergence (sprayed after 8 days cultivation); rate 1000 g/ha; evaluated after 13 days; scale 5=total damage to plant, 0=no damage to plant
Protocol: as §2

[10] = tested on: Setaria faberi (SETFA); test: B2 post-emergence herbicidal activity; details: Test B2b; post-emergence (sprayed after 8 days cultivation); rate 1000 g/ha; evaluated after 13 days; scale 5=total damage to plant, 0=no damage to plant
Protocol: as §2

[11] = tested on: Lolium perenne (LOLPE); test: B2 post-emergence herbicidal activity; details: Test B2b; post-emergence (sprayed after 8 days cultivation); rate 1000 g/ha; evaluated after 13 days; scale 5=total damage to plant, 0=no damage to plant
Protocol: as §2

[12] = tested on: Triticum aestivium (TRZAW); test: B2 post-emergence herbicidal activity; details: Test B2b; post-emergence (sprayed after 8 days cultivation); rate 1000 g/ha; evaluated after 13 days; scale 5=total damage to plant, 0=no damage to plant
Protocol: as §2

## N#Cc1cncc(-c2ncc(N)c(C(F)(F)F)n2)c1 [Compound D10, 5-[5-amino-4-(trifluoromethyl)pyrimidin-2-yl]pyridine-3-carbonitrile]
[1]
  Control after pre-emergence application, damage score: ALOMY: 0
[2]
  Control after pre-emergence application, damage score: AVEFA: 0
[3]
  Control after pre-emergence application, damage score: ECHCG: 0
[4]
  Control after pre-emergence application, damage score: SETFA: 3
[5]
  Control after pre-emergence application, damage score: LOLPE: 0
[6]
  Control after pre-emergence application, damage score: TRAZW: 0
[7]
  Control after post-emergence application, damage score: ALOMY: 0
[8]
  Control after post-emergence application, damage score: AVEFA: 1
[9]
  Control after post-emergence application, damage score: ECHCG: 3
[10]
  Control after post-emergence application, damage score: SETFA: 4
[11]
  Control after post-emergence application, damage score: LOLPE: 1
[12]
  Control after post-emergence application, damage score: TRAZW: 1

## CCCN(CCC)c1cnc(-c2cncc(F)c2)nc1C(F)(F)F [Compound D14, 2-(5-fluoro-3-pyridyl)-N,N-dipropyl-4-(trifluoromethyl)pyrimidin-5-amine]
[1]
  Control after pre-emergence application, damage score: ALOMY: 1
[2]
  Control after pre-emergence application, damage score: AVEFA: 0
[3]
  Control after pre-emergence application, damage score: ECHCG: 2
[4]
  Control after pre-emergence application, damage score: SETFA: 2
[5]
  Control after pre-emergence application, damage score: LOLPE: 1
[6]
  Control after pre-emergence application, damage score: TRAZW: 1
[7]
  Control after post-emergence application, damage score: ALOMY: 1
[8]
  Control after post-emergence application, damage score: AVEFA: 3
[9]
  Control after post-emergence application, damage score: ECHCG: 4
[10]
  Control after post-emergence application, damage score: SETFA: 4
[11]
  Control after post-emergence application, damage score: LOLPE: 2
[12]
  Control after post-emergence application, damage score: TRAZW: 0

## Cc1nc(-c2cncnc2)ncc1N [Compound D3, 4-methyl-2-pyrimidin-5-yl-pyrimidin-5-amine]
[1]
  Control after pre-emergence application, damage score: ALOMY: 0
[2]
  Control after pre-emergence application, damage score: AVEFA: 0
[3]
  Control after pre-emergence application, damage score: ECHCG: 1
[4]
  Control after pre-emergence application, damage score: SETFA: 2
[5]
  Control after pre-emergence application, damage score: LOLPE: 1
[6]
  Control after pre-emergence application, damage score: TRAZW: 0
[7]
  Control after post-emergence application, damage score: ALOMY: 1
[8]
  Control after post-emergence application, damage score: AVEFA: 1
[9]
  Control after post-emergence application, damage score: ECHCG: 2
[10]
  Control after post-emergence application, damage score: SETFA: 3
[11]
  Control after post-emergence application, damage score: LOLPE: 1
[12]
  Control after post-emergence application, damage score: TRAZW: 0

## CCNc1cnc(-c2cncc(N)c2)nc1C(F)(F)F [Compound D11]
[1]
  Control after pre-emergence application, damage score: ALOMY: 0
[2]
  Control after pre-emergence application, damage score: AVEFA: 0
[3]
  Control after pre-emergence application, damage score: ECHCG: 3
[4]
  Control after pre-emergence application, damage score: SETFA: 5
[5]
  Control after pre-emergence application, damage score: LOLPE: 0
[6]
  Control after pre-emergence application, damage score: TRAZW: 0
[7]
  Control after post-emergence application, damage score: ALOMY: 1
[8]
  Control after post-emergence application, damage score: AVEFA: 2
[9]
  Control after post-emergence application, damage score: ECHCG: 5
[10]
  Control after post-emergence application, damage score: SETFA: 5
[11]
  Control after post-emergence application, damage score: LOLPE: 1
[12]
  Control after post-emergence application, damage score: TRAZW: 1

## Fc1cncc(-c2ncc(NCc3nccs3)c(C(F)(F)F)n2)c1 [Compound D15]
[1]
  Control after pre-emergence application, damage score: ALOMY: 0
[2]
  Control after pre-emergence application, damage score: AVEFA: 1
[3]
  Control after pre-emergence application, damage score: ECHCG: 4
[4]
  Control after pre-emergence application, damage score: SETFA: 5
[5]
  Control after pre-emergence application, damage score: LOLPE: 0
[6]
  Control after pre-emergence application, damage score: TRAZW: 0
[7]
  Control after post-emergence application, damage score: ALOMY: 1
[9]
  Control after post-emergence application, damage score: ECHCG: 5
[10]
  Control after post-emergence application, damage score: SETFA: 5
[11]
  Control after post-emergence application, damage score: LOLPE: 2
[12]
  Control after post-emergence application, damage score: TRAZW: 0

## CCCNc1cnc(-c2cncc(F)c2)nc1C(F)(F)F [Compound D13, 2-(5-fluoro-3-pyridyl)-N-propyl-4-(trifluoromethyl)pyrimidin-5-amine]
[1]
  Control after pre-emergence application, damage score: ALOMY: 0
[2]
  Control after pre-emergence application, damage score: AVEFA: 0
[3]
  Control after pre-emergence application, damage score: ECHCG: 1
[4]
  Control after pre-emergence application, damage score: SETFA: 2
[5]
  Control after pre-emergence application, damage score: LOLPE: 1
[6]
  Control after pre-emergence application, damage score: TRAZW: 1
[7]
  Control after post-emergence application, damage score: ALOMY: 0
[8]
  Control after post-emergence application, damage score: AVEFA: 3
[9]
  Control after post-emergence application, damage score: ECHCG: 4
[10]
  Control after post-emergence application, damage score: SETFA: 4
[11]
  Control after post-emergence application, damage score: LOLPE: 1
[12]
  Control after post-emergence application, damage score: TRAZW: 0

## CN(C)c1cnc(-c2cncc(F)c2)nc1C(F)(F)F [Compound D8]
[1]
  Control after pre-emergence application, damage score: ALOMY: 0
[2]
  Control after pre-emergence application, damage score: AVEFA: 1
[3]
  Control after pre-emergence application, damage score: ECHCG: 2
[4]
  Control after pre-emergence application, damage score: SETFA: 4
[5]
  Control after pre-emergence application, damage score: LOLPE: 1
[6]
  Control after pre-emergence application, damage score: TRAZW: 0
[7]
  Control after post-emergence application, damage score: ALOMY: 0
[8]
  Control after post-emergence application, damage score: AVEFA: 1
[9]
  Control after post-emergence application, damage score: ECHCG: 4
[10]
  Control after post-emergence application, damage score: SETFA: 5
[11]
  Control after post-emergence application, damage score: LOLPE: 0
[12]
  Control after post-emergence application, damage score: TRAZW: 0

## CNc1cnc(-c2cncnc2)nc1C [Compound D4]
[1]
  Control after pre-emergence application, damage score: ALOMY: 0
[2]
  Control after pre-emergence application, damage score: AVEFA: 0
[3]
  Control after pre-emergence application, damage score: ECHCG: 0
[4]
  Control after pre-emergence application, damage score: SETFA: 2
[5]
  Control after pre-emergence application, damage score: LOLPE: 1
[6]
  Control after pre-emergence application, damage score: TRAZW: 0
[7]
  Control after post-emergence application, damage score: ALOMY: 1
[8]
  Control after post-emergence application, damage score: AVEFA: 0
[9]
  Control after post-emergence application, damage score: ECHCG: 1
[10]
  Control after post-emergence application, damage score: SETFA: 1
[11]
  Control after post-emergence application, damage score: LOLPE: 1
[12]
  Control after post-emergence application, damage score: TRAZW: 0

## C=CCNc1cnc(-c2cncnc2)nc1C [Compound D7]
[1]
  Control after pre-emergence application, damage score: ALOMY: 0
[2]
  Control after pre-emergence application, damage score: AVEFA: 1
[3]
  Control after pre-emergence application, damage score: ECHCG: 2
[4]
  Control after pre-emergence application, damage score: SETFA: 4
[5]
  Control after pre-emergence application, damage score: LOLPE: 1
[6]
  Control after pre-emergence application, damage score: TRAZW: 0
[7]
  Control after post-emergence application, damage score: ALOMY: 0
[8]
  Control after post-emergence application, damage score: AVEFA: 1
[9]
  Control after post-emergence application, damage score: ECHCG: 2
[10]
  Control after post-emergence application, damage score: SETFA: 4
[11]
  Control after post-emergence application, damage score: LOLPE: 0
[12]
  Control after post-emergence application, damage score: TRAZW: 1
